We go through one compound from patent publication US20190059381A1, “METHOD FOR CONTROLLING PESTS OF SOYBEAN, CORN, AND COTTON PLANTS” (BASF SE, priority 2016, published 2019).

Where two headings read alike, the source gives them in different places.

What is called mortality is the percentage killed.

The test relates to Brown Stink Bug (Euschistus heros). The test can be described thus: Action on Brown Stink Bug (Euschistus heros) on sprayed soybean seedlings. To be noted: for mortality at 1 ppm: 1 ppm a.i.; for mortality at 10 ppm: 10 ppm a.i. Format: in vivo. As for the experimental part: Action on Brown Stink Bug (Euschistus heros)
The active compound is dissolved at the desired concentration in a mixture of 1:1 (vol:vol) distilled water: acetone.
Soybean seedlings of Intacta® and BMX-Potencia with one pair of true leaves were sprayed with 2 ml solution using an airbrush. After dry, the plants in small pots were placed inside a transparent plastic cage and infested with 10 adults adult stage individuals. Treated cups were kept at about 25° C. Percent mortality was recorded after 3 and 7 days after application.

Where [1] appears, read: 72 h, BMX-POTENCIA soybean seedlings, 3 days after application, adults, read-out: mortality 3 DAA.
Setting [2] is: 72 h, INTACTA soybean seedlings, 3 days after application, adults, read-out: mortality 3 DAA.
Setting [3] is: 168 h, BMX-POTENCIA soybean seedlings, 7 days after application, adults, read-out: mortality 7 DAA.
Where [4] appears, read: 168 h, BMX-POTENCIA soybean seedlings, 7 days after application, corrected according to Abbott, read-out: mortality (Abbott %) 7 DAA.
The mark [5] stands for this setting: 168 h, INTACTA soybean seedlings, 7 days after application, adults, read-out: mortality 7 DAA.
Setting [6] is: 168 h, INTACTA soybean seedlings, 7 days after application, corrected according to Abbott, read-out: mortality (Abbott %) 7 DAA.

Consider `CCN1OC[C@@H](NC(=O)c2ccc(C3=NOC(c4cc(Cl)cc(Cl)c4)(C(F)(F)F)C3)cc2C)C1=O` (stereo partly drawn) [Compound I.1], for which the mortality at 1 ppm under setting [1] came to 7.5%; the mortality at 1 ppm under setting [2] stood at 12.5%; the mortality at 1 ppm under setting [3] stood at 50%; the mortality at 1 ppm under setting [4] came out at 42.9%; the mortality at 1 ppm under setting [5] came to 57.5%; the mortality at 1 ppm under setting [6] amounted to 50%. Further, the mortality at 10 ppm under setting [1] was found to be 17.5%; the mortality at 10 ppm under setting [2] amounted to 17.5%; the mortality at 10 ppm under setting [3] was determined as 82.5%; the mortality at 10 ppm under setting [4] came to 80%; the mortality at 10 ppm under setting [5] was 85%; the mortality at 10 ppm under setting [6] was 82.4%.
